Assay results published in patent US20050182025A1, “Amidinylphenyl compounds and their use as fungicides” (priority 2002, published 2005).

How the values were obtained:
Format in all cases: in vivo
[1] = system: Erysiphe graminis f. sp. tritici; assay: Test A: preventive spray on wheat seedlings, wheat powdery mildew, disease rating; conditions: wheat seedlings sprayed to run-off, inoculated the following day with Erysiphe graminis f. sp. tritici, rated after 7 days at 20° C.; test concentration not given
Text: General protocol for preparing test suspensions: Test compounds were first dissolved in acetone in an amount equal to 3% of the final volume and then suspended at the desired concentration (in ppm) in acetone and purified water (50/50 mix) containing 250 ppm of the surfactant Trem® 014 (polyhydric alcohol esters). The resulting test suspensions were then used in the following tests. Spraying a 200 ppm test suspension to the point of run-off on the test plants was the equivalent of a rate of 500 g/ha. The test suspension was sprayed to the point of run-off on wheat seedlings. The following day the seedlings were inoculated with a spore dust of Erysiphe graminis f. sp. tritici, (the causal agent of wheat powdery mildew) and incubated in a growth chamber at 20° C. for 7 days, after which disease ratings were made. Results for Tests A-C are given in Table A. In the table, a rating of 100 indicates 100% disease control and a rating of 0 indicates no disease control (relative to the controls). A dash (-) indicates no test results.

[2] = system: Puccinia recondita; assay: Test B: preventive spray on wheat seedlings, wheat leaf rust, disease rating; conditions: wheat seedlings sprayed to run-off, inoculated the following day with Puccinia recondita, 24 h saturated atmosphere then 6 days at 20° C.; test concentration not given
Text: (§1) General protocol for preparing test suspensions: Test compounds were first dissolved in acetone in an amount equal to 3% of the final volume and then suspended at the desired concentration (in ppm) in acetone and purified water (50/50 mix) containing 250 ppm of the surfactant Trem® 014 (polyhydric alcohol esters). The resulting test suspensions were then used in the following tests. Spraying a 200 ppm test suspension to the point of run-off on the test plants was the equivalent of a rate of 500 g/ha. The test suspension was sprayed to the point of run-off on wheat seedlings. The following day the seedlings were inoculated with a spore suspension of Puccinia recondita (the causal agent of wheat leaf rust) and incubated in a saturated atmosphere at 20° C. for 24 h, and then moved to a growth chamber at 20° C. for 6 days, after which disease ratings were made. Results for Tests A-C are given in Table A. In the table, a rating of 100 indicates 100% disease control and a rating of 0 indicates no disease control (relative to the controls). A dash (-) indicates no test results.

[3] = system: Septoria nodorum; assay: Test C: preventive spray on wheat seedlings, Septoria glume blotch, disease rating; conditions: wheat seedlings sprayed to run-off, inoculated the following day with Septoria nodorum, 48 h saturated atmosphere then 9 days at 20° C.; test concentration not given
Text: as §1, with “Septoria nodorum” for “Puccinia recondita”, “Septoria glume blotch)” for “wheat leaf rust)”, “48” for “24”, “9” for “6”

| SMILES | Test A disease control rating (100 = 100% disease control, 0 = no disease control relative to the controls) [1] | Test B disease control rating (100 = 100% disease control, 0 = no disease control relative to the controls) [2] | Test C disease control rating (100 = 100% disease control, 0 = no disease control relative to the controls) [3] |
| --- | --- | --- | --- |
| CCCCCCCCCCCCOc1cc(C)c(N=CN(C)C)cc1C [Compound 25] | 0% | 90% | 0% |
| Cc1cc(OCCC[Si](C)(C)C)c(C)cc1N=CN(C)C [Compound 26, N′-[2,5-Dimethyl-4-[3-(trimethylsilyl)propoxy]phenyl]-N,N-dimethylmethanimidamide] | 98% | 100% | 100% |
| Cc1cc(OCCCO[Si](C)(C)C(C)(C)C)c(C)cc1N=CN(C)C [Compound 27] | 99% | 100% | 100% |
| CCCCC(CCCC)Oc1cc(C)c(N=CN(C)C)cc1C [Compound 28, N′-[4-[(1-Butylpentyl)oxy]-2,5-dimethylphenyl]-N,N-dimethylmethanimidamide] | 0% | 97% | 0% |
| CCCCC(CCC)Oc1cc(C)c(N=CN(C)C)cc1C (stereo not drawn) [Compound 29] | 99% | 100% | 58% |
| CCCCCC(CCCCC)Oc1cc(C)c(N=CN(C)C)cc1C [Compound 30] | 0% | 100% | 0% |
| CCC(CCC(C)C)Oc1cc(C)c(N=CN(C)C)cc1C (stereo not drawn) [Compound 31] | 93% | 100% | 53% |
| Cc1cc(OC(C)CCC(C)C)c(C)cc1N=CN(C)C (stereo not drawn) [Compound 32] | 97% | 100% | 95% |
| CCCC(CCC(C)C)Oc1cc(C)c(N=CN(C)C)cc1C (stereo not drawn) [Compound 33] | 95% | 100% | 0% |
| CCC(CC)Oc1cc(C)c(N=CN(C)C)cc1C [Compound 34] | 96% | 100% | 0% |
| Cc1cc(OC(CCC(C)C)CCC(C)C)c(C)cc1N=CN(C)C [Compound 35] | 95% | 100% | 100% |
| CCCC(CCC)Oc1cc(C)c(N=CN(C)C)cc1C [Compound 36] | 88% | 100% | 0% |
| C=C(COc1cc(C)c(N=CN(C)C)cc1C)C[Si](C)(C)C [Compound 38] | 96% | 100% | 20% |
| CC(C)=CCCOc1cc(C)c(N=CN(C)C)cc1C [Compound 39] | 0% | 100% | 94% |
| Cc1cc(OCC=CC(C)(C)C)c(C)cc1N=CN(C)C [Compound 40] | 97% | 100% | 100% |
| Cc1cc(OCCOC(C)(C)C)c(C)cc1N=CN(C)C [Compound 41] | 79% | 99% | 47% |
| COC(C)(C)CCCOc1cc(C)c(N=CN(C)C)cc1C [Compound 43] | 96% | 100% | 93% |
| CCOC(C)(C)CCCOc1cc(C)c(N=CN(C)C)cc1C [Compound 44] | 99% | 100% | 99% |
| Cc1cc(OCCCC(C)(C)O)c(C)cc1N=CN(C)C [Compound 45] | 0% | 80% | 0% |
| Cc1cc(OCCCC(C)(Cl)C(C)C)c(C)cc1N=CN(C)C (stereo not drawn) [Compound 46] | 97% | 100% | 97% |
| Cc1cc(OCCCCC(C)(C)C#N)c(C)cc1N=CN(C)C [Compound 47] | 29% | 99% | 80% |
| Cc1cc(OCCCCC(C)C)c(C)cc1N=CN(C)C [Compound 48] | 99% | 100% | 96% |
| Cc1cc(OCCCC(C)C(C)C)c(C)cc1N=CN(C)C (stereo not drawn) [Compound 49] | 99% | 99% | 83% |
